Measurements taken from patent US20260265244A1, “HETEROCYCLIC COMPOUNDS AS STING ANTAGONISTS” (Boehringer Ingelheim International GmbH, priority 2022, published 2026).
pIC50: −log10 of the molar value.

How the values were obtained:
[1] = tested on: STING inhibition in human whole blood (IFNα2α production); assay: Human whole blood assay (HWBA): cGAMP-stimulated IFNα2α production; assay type: cell-based; settings: Homo sapiens
Method: For the detection of STING inhibition in physiological environment human whole blood was stimulated by the cyclic dinucleotide cGAMP. Pathway activity was monitored by measuring the IFNα2α production.
Assay method: Compounds were delivered as 10 mM DMSO solution and serial diluted and transferred to the 96-well Cell culture Plate (Corning #3595), prefilled with 20 μl OptiMEM (Gibco #11058-021) in each well, using an Echo acoustic dispenser. Typically, 8 concentrations were used with the highest concentration at 10 μM in the final assay volume followed by ~1:5 dilution steps. DMSO concentration was set to 0.1% in the final assay volume. The 96 well assay plate contained 9 test compounds, a reference compound and DMSO in control wells.
Collection of human whole blood from 3 or more healthy donors (male or female, no medication for 7 days, exception contraceptive and thyroxine) as Na-citrate blood (e.g. 3.8% in Monovettes from Sarstedt) is conducted in parallel. Whole blood was kept at room temperature for a maximum of 3 hours after collection until use in the assay.
160 μl of the whole blood samples were transferred to each well of the 96-well assay plates filled with compound/OptiMEM. All assay plates are prepared as duplicates with blood from different donors. Blood plates were kept at room temperature for 60 minutes and continuous shaking with 450 rpm, covered with the lid, but not sealed.
A 10× cGAMP assay solution was diluted from a 2 mM stock solution in 1×HBSS immediately before use at room temperature. 20 μl of the 10× cGAMP/HBSS were added to all compound and all high control wells, whereas HBSS only was added to all low control wells.
After covering assay plates with aera seals and the lid, blood plates were kept at room temperature for 30 minutes and continuous shaking with 450 rpm, followed by an overnight incubation of 22 h at 37° C. in the incubator, without shaking.
For the detection of IFNα-2α in human plasma, the biotinylated capture antibody (Antibody set IFNA2, Meso Scale Diagnostics #B21VH-3, including coating and capture antibody) was diluted 1:17.5 in Diluent 100 (Meso Scale Diagnostics #R50AA-4, according to the manufacturer. U-Plex MSD GOLD 96-well Small Spot Streptavidin SECTOR Plates (Meso Scale Diagnostics #L45SA-5) were coated with 25 μl diluted capture antibody. Coated plates were incubated for 60 min at room temperature under continuous shaking at 700 rpm. MSD IFNα-2α plates were washed three times with 150 μl wash buffer (1×HBSS, 0.05% Tween).
After blocking the plates with 100 μl block solution/well (1×HBSS with 0.2% Tween, 2% BSA) for 60 min at room temperature and continuous shaking at 700 rpm, plates were emptied as dry as possible by dumping just before continuing with the human plasma. Whole Blood assay plates were centrifuged at 1600 rpm for 10 minutes. 25 μl of supernatant was transferred with a pipetting robotics from each whole blood plate to the corresponding IFNα-2α plate. Plates were sealed with microplate seals and kept at room temperature again under continuous shaking at 700 rpm for two hours. Next MSD IFNα-2α plates were washed three times with 150 μl wash buffer (1×HBSS, 0.05% Tween), before adding 25 μl MSD SULFO-TAG IFNα-2α Antibody solution (1:100 diluted in Diluent 3 (Meso Scale Diagnostics #R50AP-2) to each well of the plates. Afterwards plates were sealed with microplate seals and kept at room temperature again under continuous shaking at 700 rpm for two hours. Finally MSD IFNα-2α plates were washed three times with 150 μl wash buffer (1×HBSS, 0.05% Tween). 150 μl 2×Read buffer was added to each well and plates were immediately measured with the MSD Sector S600 Reader using the vendor barcode.
Data evaluation and calculation: For data evaluation and calculation, % control calculation of each well was based on the mean of high (cGAMP stimulated control) and mean of low (unstimulated control) controls by using the following formula: […]

[2] = target: T1, cGAMP binding domain of wild-type (GRR) human STING, residues 155-341 (Homo sapiens, UniProt Q86WV6, H232R); assay: Increase of stability of STING protein against thermal denaturation, Differential Scanning Fluorimetry (DSF)
T1 construct: His-TEV-hSTING (WT); TEV protease cleavage site (N); made in house; host or cells: E. coli BL21 DE3
T1 sequence (Q86WV6 with tags, fused parts or gaps H232R): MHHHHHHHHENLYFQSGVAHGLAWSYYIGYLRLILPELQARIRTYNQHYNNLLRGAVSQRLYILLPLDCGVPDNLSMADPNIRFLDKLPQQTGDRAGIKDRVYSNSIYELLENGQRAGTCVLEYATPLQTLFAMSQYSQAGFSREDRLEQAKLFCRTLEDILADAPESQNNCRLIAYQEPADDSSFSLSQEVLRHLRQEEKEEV
Method: Dye fluorescence is quenched in aqueous environment and increases upon association of the dye with the hydrophobic parts of the unfolding protein. […] The inflection point of the curve represents the “melting” temperature of the protein (Tm) which is calculated numerically using the Boltzmann equation.
Method: The thermal stability of the STING protein was measured using a specific expression construct of the cGAMP binding domain of wild-type (GRR) human STING comprising residues 155-341 and a N-terminal 8×His-tag (SEQ ID NO: 3) in assay buffer containing 20 mM Tris, 150 mM NaCl at pH7.5.
The assay uses Hard-Shell® PCR Plates 384-Well CLR/WHT (Catalog #HSP3805, BIO-RAD), Microseal® ‘B’ Adhesive Seals for PCR Plates (Catalog #MSB-1001, BIO-RAD) and was run on a CFX384 Real-Time System (Bio-Rad).
A DMSO stock solution of SYPRO orange (SIGMA S5692-500UL) was prepared.
Compound stock solutions (10 mM in DMSO) were diluted 1:2 in DMSO to an intermediate compound concentration of 5 mM and then further diluted 1:40 in assay buffer resulting in a compound concentration of 125 μM and 2.5% DMSO.
Fluorescent dye stock solution (5000×SYPRO Orange) was then mixed with target protein and buffer to a concentration of 15 uM Protein and 25×SYPRO Orange. 2 ul of this protein-dye-mixture was added to 8 ul compound solution. Final volume was 10 uL. 3-6 well positions were used as negative control (protein with 2% DMSO). The plates were prepared for duplicate measurement and centrifuged for 2 min at 1000 g. In the measurement, 160 cycles of 0.5° C. were used (temperature ramp 15 s/cycle, 15° C. to 95° C.).
Final Assay concentrations for compound characterization were as follows: 100 uM compound, 3 uM target protein, 5×SYPRO Orange, 2% DMSO in 10 ul. All dispensing steps were performed using a HamiltonStar pipetting robot (Hamilton).
Dissociation curves were processed in Bio-Rad CFX Manager. Peak type was set to “negative”. Compound codes for screen were assigned in the plate layout.
Two replicates of TM measurements were averaged, and the standard deviation was calculated. In cases of SD>1.5° C. the measurement was repeated.
The melting point (Tm) obtained for STING protein alone was subtracted from T obtained for protein incubated with ligand to generate ΔTm values.
Protein production and purification: The protein used for the biophysical experiments was a recombinant human STING protein comprising its cytosolic ectodomain. A codon optimized DNA sequence (for expression in Escherichia coli) encoding amino acid residues 155 to 341 (Swiss Prot Q86WV6) of human STING (WT) was synthesized by GeneArt (Regensburg, Germany) and inserted into a pET17b E. coli expression vector. The protein construct encodes an N-terminal 8×His-tag (SEQ ID NO: 3) followed by tobacco etch virus protease (TEV) cleavage site and the above STING gene sequence. The resulting protein sequence for the used STING variant is listed below:
For expression of recombinant human STING above construct was transformed into E. coli BL21 DE3 strain and grown in shake flasks in LB-medium at 37° C. Expression was induced by addition of isopropyl β-D-1-thiogalactopyranoside to a final concentration of 1 mM and cultures shaken overnight. Cell pellets were centrifuged and stored at −70° C. until further use. Protein was purified by cell thawing in lysis buffer (20 mM TRIS-HCl, pH 8, 300 mM NaCl, 2 mM mercaptoethanol, 20 mM imidazole, Complete Protease Inhibitor (Roche) and DNase (Roche)), followed by metal affinity purification using Ni-NTA resins and elution buffer consisting of 20 mM TRIS-HCl, pH 8, 300 mM NaCl, 2 mM mercaptoethanol, 300 mM imidazole and size exclusion chromatography in running buffer (20 mM TRIS-HCl, pH 8, 100 mM NaCl, 2 mM DTT). The peak fraction was collected and concentrated to 2.5 mg/mL.

STING = settings: in vitro and in BLM-induced SSc mice; cited from earlier work

Row | pIC50 [1] | DSF [2] [K] | SMILES | fibrosis and vasculopathy (STING)
1 | 6.10 | 27 | Cn1cc2cc(-c3nc(-c4cccc5nn(C[C@H](O)c6ccc(OCc7ccccc7)cc6)cc45)c(C4CC4)n3C)c(C3CC3)nc2n1 [Example 4, (1R)-1-[4-(benzyloxy)phenyl]-2-[4-(5-cyclopropyl-2-{6-cyclopropyl-2-methyl-2H-pyrazolo[3,4-b]pyridin-5-yl}-1-methyl-1H-imidazol-4-yl)-2H-indazol-2-yl]ethan-1-ol] | 
2 | 7.21 |  | CCOc1nc2nn(C)cc2cc1-n1nc(-c2cccc3nn(C[C@H](O)c4ccccc4)cc23)c(C(C)C)c1C [Example 5, (1R)-2-[4-(1-{6-ethoxy-2-methyl-2H-pyrazolo[3,4-b]pyridin-5-yl}-5-methyl-4-(propan-2-yl)-1H-pyrazol-3-yl)-2H-indazol-2-yl]-1-phenylethan-1-ol] | 
3 | 7.15 | 30 | Cn1c(-c2cc3cn(CCCN4CCOCC4)nc3nc2C2CC2)nc(-c2cccc3nn(C[C@H](O)c4ccccc4)cc23)c1C1CC1 [Example 11, (1R)-2-[4-(5-cyclopropyl-2-{6-cyclopropyl-2-[3-(morpholin-4-yl)propyl]-2H-pyrazolo[3,4-b]pyridin-5-yl}-1-methyl-1H-imidazol-4-yl)-2H-indazol-2-yl]-1-phenylethan-1-ol] | 
4 | 6.96 | 27 | Cc1nc2nn(CC3COCCO3)cc2cc1-n1nc(-c2cccc3nn(C[C@H](O)c4ccccc4)cc23)c(C(C)C)c1C (stereo partly drawn) [Example 31, (1R)-2-[4-(1-{2-[(1,4-dioxan-2-yl)methyl]-6-methyl-2H-pyrazolo[3,4-b]pyridin-5-yl}-5-methyl-4-(propan-2-yl)-1H-pyrazol-3-yl)-2H-indazol-2-yl]-1-phenylethan-1-ol] | 
5 | 6.89 | 26 | COCCc1nc2nn(C)cc2cc1-n1nc(-c2cccc3nn(C[C@H](O)c4ccccc4)cc23)c(C(C)C)c1C [Example 38, (1R)-2-(4-{1-[6-(2-methoxyethyl)-2-methyl-2H-pyrazolo[3,4-b]pyridin-5-yl]-5-methyl-4-(propan-2-yl)-1H-pyrazol-3-yl}-2H-indazol-2-yl)-1-phenylethan-1-ol] | 
6 | 6.85 |  | Cc1nc2nn(CCCN(C)C)cc2cc1-n1nc(-c2cccc3nn(C[C@H](O)c4ccccc4)cc23)c(C(C)C)c1C [Example 43, (1R)-2-[4-(1-{2-[3-(dimethylamino)propyl]-6-methyl-2H-pyrazolo[3,4-b]pyridin-5-yl}-5-methyl-4-(propan-2-yl)-1H-pyrazol-3-yl)-2H-indazol-2-yl]-1-phenylethan-1-ol] | 
7 | 6.62 | 27 | COc1nc2nn(C)cc2cc1-n1nc(-c2cccc3nn(C[C@H](O)c4ccccc4)cc23)c(C(C)C)c1C [Example 59, (1R)-2-[4-(1-{6-methoxy-2-methyl-2H-pyrazolo[3,4-b]pyridin-5-yl}-5-methyl-4-(propan-2-yl)-1H-pyrazol-3-yl)-2H-indazol-2-yl]-1-phenylethan-1-ol] | 
8 | 6.57 | 30 | C=Cn1cc2cc(-c3nc(-c4cccc5nn(C[C@H](O)c6ccccc6)cc45)c(C4CC4)n3C)c(C3CC3)nc2n1 [Example 61, (1R)-2-[4-(5-cyclopropyl-2-{6-cyclopropyl-2-ethenyl-2H-pyrazolo[3,4-b]pyridin-5-yl}-1-methyl-1H-imidazol-4-yl)-2H-indazol-2-yl]-1-phenylethan-1-ol] | 
9 | 6.43 | 26 | Cc1c(C(C)C)c(-c2cccc3nn(C[C@H](O)c4ccccc4)cc23)nn1-c1cc2cn(C)nc2nc1OCCO [Example 71, 2-{[5-(3-{2-[(2R)-2-hydroxy-2-phenylethyl]-2H-indazol-4-yl}-5-methyl-4-(propan-2-yl)-1H-pyrazol-1-yl)-2-methyl-2H-pyrazolo[3,4-b]pyridin-6-yl]oxy}ethan-1-ol] | 
10 | 6.26 | 27 | Cc1nc2nn(CP(C)(C)=O)cc2cc1-n1nc(-c2cccc3nn(C[C@H](O)c4ccccc4)cc23)c(C(C)C)c1C [Example 77, (1R)-2-[4-(1-{2-[(dimethylphosphoryl)methyl]-6-methyl-2H-pyrazolo[3,4-b]pyridin-5-yl}-5-methyl-4-(propan-2-yl)-1H-pyrazol-3-yl)-2H-indazol-2-yl]-1-phenylethan-1-ol] | 
11 | 7.46 | 29 | Cc1nc2nn(CCC#N)cc2cc1-n1nc(-c2cccc3nn(C[C@H](O)c4ccccc4)cc23)c(C(C)C)c1C [Example 99] | 
12 |  |  | CCc1ccc(NC(=O)Nc2c[nH]c3ccccc23)cc1 [Example H151] | ameliorated fibrosis and vasculopathy
